Data set [1] addresses MERS-PLpro_WT (Middle East respiratory syndrome-related coronavirus, UniProt K9N7C7). It counts as binding.
Data set [2] concerns SARS-CoV-2. In kind it is cell-based.
The test system of data set [3] is MERS-CoV. In kind it is cell-based.
Data set [4] deals with MERS-PLpro (Middle East respiratory syndrome-related coronavirus, UniProt K9N7C7). It counts as biochemical.
The test system of data set [5] is MERS-CoV. Put plainly: microbe, parasite or virus in culture. In kind it is cell-based.
For data set [6], the system named is SARS-CoV-2. Put plainly: microbe, parasite or virus in culture. In kind it is cell-based.
In data set [7] the target is T1, SARS2-PLpro (Severe acute respiratory syndrome coronavirus 2, UniProt P0DTD1). It counts as biochemical. To be noted: read-out: IC50 against SARS2-PLpro.
The subject of data set [8] is human DUBs. In kind it is biochemical.
The subject of data set [9] is hCoV-229E. In kind it is cell-based.
Data set [10] deals with PLpro-mediated IFN suppression (SARS2-PLpro, MERS-PLpro). In kind it is cell-based.
The test system of data set [11] is cellular proteases (serine, cysteine and acid proteases). In kind it is biochemical.
For data set [12], the system named is Huh-7, VeroE6/TMPRSS2, Calu-3, Caco-2, BSC-1 cells and human embryonic lung fibroblasts (HELF).
In data set [13] the target is T1, SARS2-PLpro. In kind it is biochemical.
The test system of data set [14] is SARS-CoV-2. Also noted: species or system golden Syrian hamster. Particulars: hamster, in vivo.
The subject of data set [15] is ISG15 and PKR expression.
For data set [16], the system named is hCoV-OC43. It counts as cell-based.
The test system of data set [17] is ISG15 and PKR expression. It counts as cell-based.
In data set [18] the target is T1, SARS2-PLpro. In kind it is binding, SARS-CoV-2.
The test system of data set [19] is MERS-CoV. In kind it is cell-based. The source holds these as a separate data set.
Data set [20] deals with SARS-CoV-2. In kind it is cell-based. The source holds these as a separate data set.
[21] abbreviates: Severe acute respiratory syndrome coronavirus 2, read-out: EC50 anti-SARS-CoV-2.

Consider five molecules from publication PMC8983325 (Protein & Cell, 2022).

Where “and” joins values, the source holds several entries; their conditions need not be identical. Equal values may be shown once. Read-outs that look alike come from different tables or passages of the source.

Chain of MERS-PLpro_WT (K9N7C7 1552-1823 limits assumed): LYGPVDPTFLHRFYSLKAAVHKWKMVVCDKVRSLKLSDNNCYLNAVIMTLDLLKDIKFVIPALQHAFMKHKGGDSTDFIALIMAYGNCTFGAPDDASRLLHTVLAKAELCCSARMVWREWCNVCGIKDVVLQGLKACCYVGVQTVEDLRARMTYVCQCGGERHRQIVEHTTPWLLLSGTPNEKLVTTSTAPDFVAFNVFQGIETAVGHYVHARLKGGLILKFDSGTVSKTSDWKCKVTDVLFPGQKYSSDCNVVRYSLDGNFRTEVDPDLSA
Chain of MERS-PLpro (K9N7C7 1552-1823 limits assumed): as above

On to GRL0617 [reference compound], for which, in data set [1], the “KD, MERS-PLpro WT” value is recorded as “no binding affinity”. In data set [2], the “NP antigen immunofluorescence, SARS-CoV-2-infected Vero cells” value is recorded as “marginal virus suppression”. Besides, in data set [3], the “NP antigen immunofluorescence, MERS-CoV-infected Vero cells” value is recorded as “marginal virus suppression”. The “effect on MERS-PLpro activity” value in data set [4] is listed as “ineffective”. Also, the “inhibition against MERS-CoV” value in data set [5] was “no inhibition”.
Consider `Cc1cccc(NC(=O)c2sc(=S)n3c2[nH]c(=O)c2cc4c(cc23)OCO4)c1` [F0393], for which the EC50 (commonly the concentration at which the effect is half-maximal) in data set [6] (setting [21]) is 15.6 µM. The IC50 – broadly, the concentration needed to halve the response being measured – in [7] is 15.8 µM.
`O=C(Nc1ccccc1Cl)c1sc(=S)n2c1[nH]c(=O)c1ccccc12` [F0213]: the Kd (in general, the free concentration of one partner at which half of the binding sites on the other are occupied at equilibrium, for simple one-to-one binding) in [1] (read-out: KD, MERS-PLpro WT) worked out at 950 nM. In addition, in data set [8], the “modification of cellular DUBs by HA-Ub-VS” value is reported as “no change”. In data set [9], the “decrease of viral yields, hCoV-229E” value is “about 2 log10”. In [2], the “NP antigen immunofluorescence, SARS-CoV-2-infected Vero cells” value is listed as “significant inhibition of virus replication”. For the same molecule, in [6] (setting [21]), the EC50 was found to be 4.55 µM. In addition, the concentration for a half-maximal effect (EC50) in data set [6] (read-out: EC50 anti-SARS-CoV-2) was 4.55 µM and 4.5 µM. In addition, the “IFN-β, IRF3 and NF-κB reporter gene expression under PLpro suppression” value in [10] is “rescued the genes expression in a dose-dependent manner”. The cellular protease activity entry in [11] is listed as “not affected”. The “cytotoxicity in the matching cell lines” value in [12] was “negligible cytotoxicity”. Moreover, the “modification of PLpro by HA-Ub-VS” value in [13] was “almost completely eliminated”. In data set [14], the “decrease of infectious viral PFU in lung tissues” value was 1–2 log10, the lung histology scores result was “significantly reduced” and the “suppression of SARS-CoV-2 genome copies (normalized by β-actin) in the lungs” value is “comparable degree of suppression”. In addition, the “expression of ISG15 and PKR, SARS-CoV-2-infected Caco-2 cells” value in data set [15] is reported as “significantly enhanced”. For the same molecule, the “decrease of viral yields, hCoV-OC43” value in data set [16] is “around 1.5 log10”. For the same molecule, the “NP antigen immunofluorescence, MERS-CoV-infected Vero cells” value in [3] is recorded as “significant inhibition of virus replication”. The “transcription levels of ISG15 and PKR, MERS-CoV-infected Huh-7 cells” value in data set [17] is listed as “reduced”. Also, in [18], the “KD of F0213 to SARS2-PLpro pre-incubated with GRL0617” value is recorded as “undetectable” and the “binding affinity to SARS2-PLpro relative to GRL0617 (fold less)” value is recorded as “around 5 fold”. For the same molecule, in data set [18] (read-out: Kd, SARS2-PLpro), the dissociation constant (Kd) came to 40.5 µM. Also, in [19], the “decrease of viral yields, MERS-CoV” value is listed as “about 3 log10”. Moreover, in [20], the “reduction of SARS-CoV-2 viral yields” value is recorded as “more than 1 log10”. Further, in [5] (Middle East respiratory syndrome-related coronavirus, read-out: antiviral EC50 against MERS-CoV), the EC50 was found to be 1540 nM. In data set [7], the IC50 came to 7.4 µM.
Consider `CCC(CC)COC(=O)[C@H](C)N[P@](=O)(OC[C@H]1O[C@@](C#N)(c2ccc3c(N)ncnn23)[C@H](O)[C@@H]1O)Oc1ccccc1` [remdesivir], for which, in data set [2], the “NP antigen immunofluorescence, SARS-CoV-2-infected Vero cells” value was “significant inhibition of virus replication”. In addition, the “NP antigen immunofluorescence, MERS-CoV-infected Vero cells” value in [3] is “significant inhibition of virus replication”.
Turning to `N#C[C@@]1(c2ccc3c(N)ncnn23)O[C@H](CO)[C@@H](O)[C@H]1O` [GS-441524, reference compound], in [14], the “decrease of infectious viral PFU in lung tissues” value was “comparable”, the lung histology scores entry is recorded as “significantly reduced” and the “suppression of SARS-CoV-2 genome copies (normalized by β-actin) in the lungs” value is given as “comparable degree of suppression”.
